# Measured values reported in patent US11279735B2, “Cyclic peptide antibiotics” (priority 2017, dated 2022).
# Tested on: Escherichia coli (E. coli) strain CFT073 ATCC 700928
# Format: cell-based
# Conditions: ATCC 700928, 22 h
# Protocol: In vitro antimicrobial activity of each compound was determined by measuring minimal inhibitor concentrations (MICs) using the broth micro-dilution technique as approved by the Clinical and Laboratory Standards Institute (CLSI) (Methods for Dilution Antimicrobial Susceptibility Tests for Bacteria that Grow Aerobically; Approved Standard—Eighth Edition. CLSI document M07-A8. Wayne, Pa.: Clinical and Laboratroy Standards; 2009). Antibacterial activity was measure against Escherichia coli (E. coli) strain CFT073 ATCC 700928, which is a clinically relevant Gram-negative strain. Cells were inoculated onto plates of Mueller Hinton Agar and grown at 37° C. for 16-18 hours. Inocula suspensions were prepared by scraping cells into 1 mL of testing media (Mueller Hinton II cation adjusted Broth supplemented with 0.002% v/v Tween-80) and diluting to a final OD600 nm of 0.01.
# Test compounds were prepared in DMSO at a concentration of 100 uM The compounds were tested under several different dilution formats and the data are reported in Tables 6, 7 and 8. In protocol 1, the compound stocks were diluted into testing media at a concentration of 64 μg/ml and serial 2-fold dilutions were made in the same media, in 96-well U bottom microtiter dishes, for a total of 10 compound concentrations. In protocol 2, the compound stocks were diluted into testing media at a concentration of 4 μg/mL and serial 2-fold dilutions were made in the same media, in 96-well U bottom microtiter dishes, for a total of 10 compound concentrations. In protocol 3, compound stocks were diluted into testing media at a concentration of 0.5 μg/mL, with serial 2-fold dilutions conducted as described above. In protocol 4, compound stocks were diluted into testing media at a concentration of 0.13 μg/mL, with serial 2-fold dilutions conducted as described above. Inocula suspensions were added to the 2-fold serial dilutions of test compounds to a final density of OD OD600 nm of 0.0005 and incubated at 35° C. for 22 hours.
row,MIC [µM],Structure (SMILES)
1,50,"CCCCCC[C@H]1OC(=O)CNC(=O)[C@H](CCO)NC(=O)[C@H](CN)NC(=O)[C@H]([C@H](C)CC)NC(=O)[C@H](CC(C)C)N(C)C(=O)[C@@H]1C [Example 13, (6S,9S,12S,15S,18R,19R)-9-(aminomethyl)-19-hexyl-6-(2-hydroxyethyl)-15-isobutyl-16,18-dimethyl-12-[(1R)-1-methylpropyl]-1-oxa-4,7,10,13,16-pentazacyclononadecane-2,5,8,11,14,17-hexone]"
2,3.1,"CCCCCCCCCC[C@H]1OC(=O)CNC(=O)[C@H]([C@H](C)O)NC(=O)[C@H](CN)NC(=O)[C@H]([C@H](C)CC)NC(=O)[C@H](CCC)N(C)C(=O)[C@@H]1C [Example 14, (6S,9S,12S,15S,18R,19R)-9-(aminomethyl)-19-decyl-6-[(1S)-1-hydroxyethyl]-16,18-dimethyl-12-[(1R)-1-methylpropyl]-15-propyl-1-oxa-4,7,10,13,16-pentazacyclononadecane-2,5,8,11,14,17-hexone]"
3,6.3,"CCCCCCCCCC[C@H]1OC(=O)CNC(=O)[C@H]([C@H](C)O)NC(=O)[C@H](CN)NC(=O)[C@H]([C@H](C)CC)NC(=O)[C@H](CCC(C)C)N(C)C(=O)[C@@H]1C [Example 15, (6S,9S,12S,15S,18R,19R)-9-(aminomethyl)-19-decyl-6-[(1S)-1-hydroxyethyl]-15-isopentyl-16,18-dimethyl-12-[(1R)-1-methylpropyl]-1-oxa-4,7,10,13,16-pentazacyclononadecane-2,5,8,11,14,17-hexone]"
4,6.3,"CCCCCCCCCC[C@H]1OC(=O)CNC(=O)[C@H]([C@H](C)O)NC(=O)[C@H](CN)NC(=O)[C@H]([C@H](C)CC)NC(=O)[C@H](CC2CCC2)N(C)C(=O)[C@@H]1C [Example 16, (6S,9S,12S,15S,18R,19R)-9-(aminomethyl)-15-(cyclobutylmethyl)-19-decyl-6-[(1S)-1-hydroxyethyl]-16,18-dimethyl-12-[(1R)-1-methylpropyl]-1-oxa-4,7,10,13,16-pentazacyclononadecane-2,5,8,11,14,17-hexone]"
5,25,"CCCCCCCCCC[C@H]1OC(=O)CNC(=O)[C@H](CN)NC(=O)[C@H](CO)NC(=O)[C@H]([C@@H](C)CC)NC(=O)[C@H](CC(C)C)N(C)C(=O)[C@@H]1C [Example 19, (6S,9S,12S,15S,18R,19R)-6-(aminomethyl)-19-decyl-9-(hydroxymethyl)-15-isobutyl-16,18-dimethyl-12-[(1S)-1-methylpropyl]-1-oxa-4,7,10,13,16-pentazacyclononadecane-2,5,8,11,14,17-hexone]"
6,50,"CCCCCCCCCC[C@H]1OC(=O)CNC(=O)[C@H](CCN)NC(=O)[C@H](CO)NC(=O)[C@H]([C@@H](C)CC)NC(=O)[C@H](CC(C)C)N(C)C(=O)[C@@H]1C [Example 20, (6S,9S,12S,15S,18R,19R)-6-(2-aminoethyl)-19-decyl-9-(hydroxymethyl)-15-isobutyl-16,18-dimethyl-12-[(1S)-1-methylpropyl]-1-oxa-4,7,10,13,16-pentazacyclononadecane-2,5,8,11,14,17-hexone]"
7,50,"CCCCCCCCCC[C@H]1OC(=O)CNC(=O)[C@H](C(C)(C)O)NC(=O)[C@H](CO)NC(=O)[C@H]([C@@H](C)CC)NC(=O)[C@H](CC(C)C)N(C)C(=O)[C@@H]1C [Example 21, (6S,9S,12S,15S,18R,19R)-19-decyl-9-(hydroxymethyl)-6-(1-hydroxy-1-methyl-ethyl)-15-isobutyl-16,18-dimethyl-12-[(1S)-1-methylpropyl]-1-oxa-4,7,10,13,16-pentazacyclononadecane-2,5,8,11,14,17-hexone]"
8,13,"CCCCCCCCCC[C@H]1OC(=O)CNC(=O)[C@H]([C@H](C)O)NC(=O)[C@H](CO)NC(=O)[C@H]([C@@H](C)CC)NC(=O)[C@H](CC(C)C)N(C)C(=O)[C@@H]1C [Example 22, (6S,9S,12S,15S,18R,19R)-19-decyl-6-[(1S)-1-hydroxyethyl]-9-(hydroxymethyl)-15-isobutyl-16,18-dimethyl-12-[(1S)-1-methylpropyl]-1-oxa-4,7,10,13,16-pentazacyclononadecane-2,5,8,11,14,17-hexone]"
9,3.1,"CCCCCCCCCC[C@H]1OC(=O)CNC(=O)[C@H]([C@H](C)O)NC(=O)[C@H](CN)NC(=O)[C@H]([C@@H](C)CC)NC(=O)[C@H](CC(C)C)N(C)C(=O)[C@@H]1C [Example 23, (6S,9S,12S,15S,18R,19R)-9-(aminomethyl)-19-decyl-6-[(1S)-1-hydroxyethyl]-15-isobutyl-16,18-dimethyl-12-[(1S)-1-methylpropyl]-1-oxa-4,7,10,13,16-pentazacyclononadecane-2,5,8,11,14,17-hexone]"
10,13,"CCCCCCCCCC[C@H]1OC(=O)CNC(=O)[C@H](CC)NC(=O)[C@H](CO)NC(=O)[C@H]([C@@H](C)CC)NC(=O)[C@H](CC(C)C)N(C)C(=O)[C@@H]1C [Example 24, (6S,9S,12S,15S,18R,19R)-19-decyl-16-ethyl-9-(hydroxymethyl)-15-isobutyl-16,18-dimethyl-12-[(1S)-1-methylpropyl]-1-oxa-4,7,10,13,16-pentazacyclononadecane-2,5,8,11,14,17-hexone]"
11,25,"CCCCCCCCCC[C@H]1OC(=O)CNC(=O)[C@H]([C@H](C)O)NC(=O)[C@H](CCN)NC(=O)[C@H]([C@@H](C)CC)NC(=O)[C@H](CC(C)C)N(C)C(=O)[C@@H]1C [Example 25, (6S,9S,12S,15S,18R,19R)-9-(2-aminoethyl)-19-decyl-6-[(1S)-1-hydroxyethyl]-15-isobutyl-16,18-dimethyl-12-[(1S)-1-methylpropyl]-1-oxa-4,7,10,13,16-pentazacyclononadecane-2,5,8,11,14,17-hexone]"
12,50,"CCCCCCCCCC[C@H]1OC(=O)CNC(=O)[C@H]([C@H](C)O)NC(=O)[C@H](CNC(=N)N)NC(=O)[C@H]([C@@H](C)CC)NC(=O)[C@H](CC(C)C)N(C)C(=O)[C@@H]1C [Example 26, 1-[[(6S,9S,12S,15S,18R,19R)-19-decyl-6-[(1S)-1-hydroxyethyl]-15-isobutyl-16,18-dimethyl-12-[(1S)-1-methylpropyl]-2,5,8,11,14,17-hexaoxo-1-oxa-4,7,10,13,16-pentazacyclononadec-9-yl]methyl]guanidine]"
13,13,"CCCCCCCCCC[C@H]1OC(=O)CNC(=O)[C@H](CCO)NC(=O)[C@H](CO)NC(=O)[C@H]([C@@H](C)CC)NC(=O)[C@H](CC(C)C)N(C)C(=O)[C@@H]1C [Example 27, (6S,9S,12S,15S,18R,19R)-19-decyl-6-(2-hydroxyethyl)-9-(hydroxymethyl)-15-isobutyl-16,18-dimethyl-12-[(1S)-1-methylpropyl]-1-oxa-4,7,10,13,16-pentazacyclononadecane-2,5,8,11,14,17-hexone]"

# Same assay, conditions: E. coli CFT073 ATCC 700928; Mueller Hinton II cation adjusted Broth with 0.002% v/v Tween-80; 35° C. for 22 hours; lowest concentration that completely prevented bacterial growth
row,Structure (SMILES),MIC [µM]
1,"CCCCCCCCCC[C@H]1OC(=O)CNC(=O)[C@H](CO)NC(=O)[C@H](CO)NC(=O)[C@H]([C@@H](C)CC)NC(=O)[C@H](CC(C)C)N(C)C(=O)[C@@H]1C [Example 18, (6S,9S,12S,15S,18R,19R)-19-decyl-6,9-bis(hydroxymethyl)-15-isobutyl-16,18-dimethyl-12-[(1S)-1-methylpropyl]-1-oxa-4,7,10,13,16-pentazacyclononadecane-2,5,8,11,14,17-hexone]",19
